This note sets out measurements from patent publication US20190127381A1, “SUBSTITUTED FUSED PYRIMIDINONE COMPOUNDS” (TORRENT PHARMACEUTICALS LIMITED, priority 2016, published 2019).

Molecules are shown by their SMILES.

Experiment [1] addresses T1, purified recombinant human PI3K enzyme γ (Homo sapiens, UniProt P48736).
T1 construct: purchased Invitrogen, USA
The experiment is described as follows: Inhibition of PI3-Kinase enzymatic activity (HTRF enzyme assay), γ. Format: biochemical. Particulars: 1 μM compound; PI3K γ 100 ng/well; PIP2 10 μM; ATP 50 μM; read-out: Percentage inhibition of PI3K activity, γ. The procedure:
(§1) Inhibition of PI3-Kinase enzymatic activity was determined using a homogeneous time-resolved fluorescence (HTRF) kit from Eurofins. 1 μM of Compounds of present invention were premixed with DMSO. The experiment was initiated by mixing 1.0% DMSO as vehicle/compounds with purified recombinant human PI3K enzyme {δ (50 ng/well); γ (100 ng/well)} (Invitrogen, USA) and substrate (PIP2, 10 μM) in the wells and incubation for 15 min at room temperature. There after ATP was added (δ at 200 μM, and γ at 50 μM) in to the wells containing reaction mixture, followed by re-incubation for 30 minutes at room temperature. Reaction was terminated by addition of a stopping solution and was further incubated for 4 hours at room temperature before reading using Envision multimode reader (Perkin Elmer). Percentage inhibition of PI3K activity was calculated by determining ratio of specific europium 665 nm energy transfer signal to reference 615 nm signals.

Experiment [2] addresses T2, purified recombinant human PI3K enzyme δ (Homo sapiens, UniProt O00329).
T2 construct: purchased Invitrogen, USA
Kind of experiment: Inhibition of PI3-Kinase enzymatic activity (HTRF enzyme assay), δ. Format: biochemical. To be noted: 1 μM compound; PI3K δ 50 ng/well; PIP2 10 μM; ATP 200 μM; read-out: Percentage inhibition of PI3K activity, δ. How it is done: as §1

T2 sequence (O00329 whole entry): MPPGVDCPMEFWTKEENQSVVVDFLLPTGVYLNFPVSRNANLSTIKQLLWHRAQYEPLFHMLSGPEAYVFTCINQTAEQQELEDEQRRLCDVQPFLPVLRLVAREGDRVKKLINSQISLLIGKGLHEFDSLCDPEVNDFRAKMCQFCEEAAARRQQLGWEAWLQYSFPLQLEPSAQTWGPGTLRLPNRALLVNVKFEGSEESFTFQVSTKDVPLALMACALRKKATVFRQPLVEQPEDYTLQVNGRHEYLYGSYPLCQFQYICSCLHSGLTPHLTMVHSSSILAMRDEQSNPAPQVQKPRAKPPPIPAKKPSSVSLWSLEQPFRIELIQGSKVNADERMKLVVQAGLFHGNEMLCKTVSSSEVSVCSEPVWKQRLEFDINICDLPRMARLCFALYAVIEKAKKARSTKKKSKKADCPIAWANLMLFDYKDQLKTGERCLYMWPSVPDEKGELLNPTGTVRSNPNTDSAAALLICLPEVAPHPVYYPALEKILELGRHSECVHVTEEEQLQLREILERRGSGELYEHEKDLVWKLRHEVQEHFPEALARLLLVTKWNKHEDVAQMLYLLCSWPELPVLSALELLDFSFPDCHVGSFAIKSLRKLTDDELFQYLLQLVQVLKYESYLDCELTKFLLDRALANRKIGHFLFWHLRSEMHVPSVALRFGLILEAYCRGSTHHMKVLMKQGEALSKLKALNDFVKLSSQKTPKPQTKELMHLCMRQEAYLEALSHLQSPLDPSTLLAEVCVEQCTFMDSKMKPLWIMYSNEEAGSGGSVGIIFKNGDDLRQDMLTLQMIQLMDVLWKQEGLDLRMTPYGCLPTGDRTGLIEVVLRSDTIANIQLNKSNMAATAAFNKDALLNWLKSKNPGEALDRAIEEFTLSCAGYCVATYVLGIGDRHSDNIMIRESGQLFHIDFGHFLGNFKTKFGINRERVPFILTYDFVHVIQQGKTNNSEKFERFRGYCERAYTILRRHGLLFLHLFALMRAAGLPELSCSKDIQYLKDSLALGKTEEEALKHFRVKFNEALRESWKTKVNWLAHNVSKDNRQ
T2 sequence (P27986 whole entry partner): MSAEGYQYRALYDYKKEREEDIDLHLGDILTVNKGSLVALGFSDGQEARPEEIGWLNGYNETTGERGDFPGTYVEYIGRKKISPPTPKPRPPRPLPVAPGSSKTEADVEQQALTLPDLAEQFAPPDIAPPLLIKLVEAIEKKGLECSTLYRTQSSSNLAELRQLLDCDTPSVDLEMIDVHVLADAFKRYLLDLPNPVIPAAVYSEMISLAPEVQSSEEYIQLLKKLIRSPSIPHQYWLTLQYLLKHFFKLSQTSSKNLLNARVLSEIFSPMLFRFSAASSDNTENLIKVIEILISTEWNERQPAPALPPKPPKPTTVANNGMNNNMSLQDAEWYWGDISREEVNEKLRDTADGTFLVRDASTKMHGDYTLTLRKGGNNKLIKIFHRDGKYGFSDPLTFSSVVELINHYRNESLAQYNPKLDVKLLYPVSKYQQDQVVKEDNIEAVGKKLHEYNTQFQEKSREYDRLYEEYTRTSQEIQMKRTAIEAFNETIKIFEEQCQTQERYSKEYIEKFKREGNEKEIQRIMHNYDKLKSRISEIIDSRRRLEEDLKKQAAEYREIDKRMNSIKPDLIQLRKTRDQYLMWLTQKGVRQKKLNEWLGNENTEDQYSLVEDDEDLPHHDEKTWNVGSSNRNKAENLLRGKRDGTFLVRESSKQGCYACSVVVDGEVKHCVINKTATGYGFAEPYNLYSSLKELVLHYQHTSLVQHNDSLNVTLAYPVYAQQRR
T1 sequence (P48736 whole entry): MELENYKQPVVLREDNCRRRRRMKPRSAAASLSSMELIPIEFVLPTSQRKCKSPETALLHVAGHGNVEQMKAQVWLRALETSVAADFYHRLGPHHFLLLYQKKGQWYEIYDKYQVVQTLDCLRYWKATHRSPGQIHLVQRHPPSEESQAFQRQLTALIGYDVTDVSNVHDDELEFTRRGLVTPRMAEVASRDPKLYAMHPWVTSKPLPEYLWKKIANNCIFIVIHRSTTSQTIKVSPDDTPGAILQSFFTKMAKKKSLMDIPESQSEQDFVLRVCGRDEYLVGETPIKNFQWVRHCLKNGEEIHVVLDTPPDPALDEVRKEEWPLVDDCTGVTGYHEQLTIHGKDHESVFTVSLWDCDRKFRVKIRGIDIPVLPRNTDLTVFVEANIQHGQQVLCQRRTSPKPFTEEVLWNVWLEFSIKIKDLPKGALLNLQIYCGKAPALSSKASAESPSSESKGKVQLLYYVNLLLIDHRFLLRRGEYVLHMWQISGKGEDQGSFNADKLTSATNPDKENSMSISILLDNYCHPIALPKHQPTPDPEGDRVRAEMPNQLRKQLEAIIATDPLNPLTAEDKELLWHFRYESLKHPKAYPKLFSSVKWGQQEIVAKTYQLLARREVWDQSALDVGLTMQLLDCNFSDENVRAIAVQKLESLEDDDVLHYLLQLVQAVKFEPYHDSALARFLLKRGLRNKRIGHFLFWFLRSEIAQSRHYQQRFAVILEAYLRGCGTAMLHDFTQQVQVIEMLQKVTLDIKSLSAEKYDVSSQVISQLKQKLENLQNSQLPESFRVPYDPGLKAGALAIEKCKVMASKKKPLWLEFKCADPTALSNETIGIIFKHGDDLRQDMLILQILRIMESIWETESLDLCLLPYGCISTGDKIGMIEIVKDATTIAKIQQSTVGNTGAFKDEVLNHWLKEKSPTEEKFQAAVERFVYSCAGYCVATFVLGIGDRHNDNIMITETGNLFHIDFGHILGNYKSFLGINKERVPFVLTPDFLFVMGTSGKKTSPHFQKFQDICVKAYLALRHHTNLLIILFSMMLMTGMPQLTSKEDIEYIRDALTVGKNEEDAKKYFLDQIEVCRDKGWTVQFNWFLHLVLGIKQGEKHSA

In the case of `CC1(C)Cc2c(-c3nn(Cc4nc5cccc(Br)c5c(=O)n4-n4cccc4)c4ncnc(N)c34)ccc(O)c2O1` [Compound No. 9, 2-{[4-amino-3-(7-hydroxy-2,2-dimethyl-2,3-dihydro-1-benzofuran-4-yl)-1H-pyrazolo[3,4-d]pyrimidin-1-yl]methyl}-5-bromo-3-(1H-pyrrol-1-yl)quinazolin-4(3H)-one], the inhibition at 1 µM in experiment [1] and in experiment [2] was 80 to 100% throughout.
Consider `Cc1ccc(C)n1-n1c(Cn2nc(-c3ccc(O)c4c3CC(C)(C)O4)c3c(N)ncnc32)nc2cccc(-c3cnn(C)c3)c2c1=O` [compound 62, 2-{[4-amino-3-(7-hydroxy-2,2-dimethyl-2,3-dihydro-1-benzofuran-4-yl)-1H-pyrazolo[3,4-d]pyrimidin-1-yl]methyl}-3-(2,5-dimethyl-1H-pyrrol-1-yl)-5-(1-methyl-1H-pyrazol-4-yl)quinazolin-4(3H)-one], for which the inhibition at 1 µM in experiment [1] lay within 60 to 80%; in experiment [2], 80 to 100%.
Taken in the same sequence, the figures for `CC1(C)Cc2c(-c3nn(Cc4nc5cccc(C#CCNC(=O)C6CC6)c5c(=O)n4-n4cccc4)c4ncnc(N)c34)ccc(O)c2O1` [compound 29, N-{3-[2-{[4-amino-3-(7-hydroxy-2,2-dimethyl-2,3-dihydro-1-benzofuran-4-yl)-1H-pyrazolo[3,4-d]pyrimidin-1-yl]methyl}-4-oxo-3-(1H-pyrrol-1-yl)-3,4-dihydroquinazolin-5-yl]prop-2-yn-1-yl}cyclopropanecarboxamide] were 80 to 100% and 80 to 100%.
Taken in the same sequence, the figures for `CC1(C)Cc2c(-c3nn(Cc4nc5cccc(Br)c5c(=O)n4C4(c5ccccc5)CC4)c4ncnc(N)c34)ccc(O)c2O1` [compound 13, 2-{[4-amino-3-(7-hydroxy-2,2-dimethyl-2,3-dihydro-1-benzofuran-4-yl)-1H-pyrazolo[3,4-d]pyrimidin-1-yl]methyl}-5-bromo-3-(1-phenylcyclopropyl)quinazolin-4(3H)-one] were 80 to 100% and 80 to 100%.
The like results for `Cc1cc(C)n(-n2c(Cn3nc(-c4ccc(O)c5c4CC(C)(C)O5)c4c(N)ncnc43)nc3cccc(C)c3c2=O)n1` [compound 11, 2-{[4-amino-3-(7-hydroxy-2,2-dimethyl-2,3-dihydro-1-benzofuran-4-yl)-1H-pyrazolo[3,4-d]pyrimidin-1-yl]methyl}-3-(3,5-dimethyl-1H-pyrazol-1-yl)-5-methylquinazolin-4(3H)-one] were, in that order, 60 to 80% and 80 to 100%.
Turning to `Cn1cccc1-c1cccc2nc(Cn3nc(-c4ccc(O)c5c4CC(C)(C)O5)c4c(N)ncnc43)n(C3(c4ccsc4)CC3)c(=O)c12` [compound 75, 2-{[4-amino-3-(7-hydroxy-2,2-dimethyl-2,3-dihydro-1-benzofuran-4-yl)-1H-pyrazolo[3,4-d]pyrimidin-1-yl]methyl}-5-(1-methyl-1H-pyrrol-2-yl)-3-[1-(thiophen-3-yl)cyclopropyl]quinazolin-4(3H)-one], the inhibition at 1 µM in experiment [1] and in experiment [2] was 80 to 100% in each case.
As to `Cc1ccc(C)n1-n1c(Cn2nc(-c3ccc(O)c4c3CC(C)(C)O4)c3c(N)ncnc32)nc2cccc(-c3ccnn3C)c2c1=O` [compound 41, 2-{[4-amino-3-(7-hydroxy-2,2-dimethyl-2,3-dihydro-1-benzofuran-4-yl)-1H-pyrazolo[3,4-d]pyrimidin-1-yl]methyl}-3-(2,5-dimethyl-1H-pyrrol-1-yl)-5-(1-methyl-1H-pyrazol-5-yl)quinazolin-4(3H)-one], the inhibition at 1 µM in experiment [1] and in experiment [2] was 80 to 100% in each case.
On to `Cc1ccc(C)n1-n1c(Cn2nc(-c3ccc(O)c4c3CC(C)(C)O4)c3c(N)ncnc32)nc2cccc(C#CCN3CCN(C)CC3)c2c1=O` [compound 57, 2-{[4-amino-3-(7-hydroxy-2,2-dimethyl-2,3-dihydro-1-benzofuran-4-yl)-1H-pyrazolo[3,4-d]pyrimidin-1-yl]methyl}-3-(2,5-dimethyl-1H-pyrrol-1-yl)-5-[3-(4-methylpiperazin-1-yl)prop-1-yn-1-yl]quinazolin-4(3H)-one], for which the figures for the inhibition at 1 µM in experiment [1] and in experiment [2] were 60 to 80% and 80 to 100%, respectively.
Turning to `CC1(C)Cc2c(-c3nn(Cc4nc5cccc(-c6cccnc6)c5c(=O)n4C4(c5ccccc5)CC4)c4ncnc(N)c34)ccc(O)c2O1` [compound 16, 2-{[4-amino-3-(7-hydroxy-2,2-dimethyl-2,3-dihydro-1-benzofuran-4-yl)-1H-pyrazolo[3,4-d]pyrimidin-1-yl]methyl}-3-(1-phenylcyclopropyl)-5-(pyridin-3-yl)quinazolin-4(3H)-one], the inhibition at 1 µM in experiment [1] was in the range of 60 to 80%; in experiment [2], 80 to 100%.
`CCn1cc(-c2cccc3nc(Cn4nc(-c5ccc(O)c6c5CC(C)(C)O6)c5c(N)ncnc54)n(-n4cccc4)c(=O)c23)cn1` [compound 45, 2-{[4-amino-3-(7-hydroxy-2,2-dimethyl-2,3-dihydro-1-benzofuran-4-yl)-1H-pyrazolo[3,4-d]pyrimidin-1-yl]methyl}-5-(1-ethyl-1H-pyrazol-4-yl)-3-(1H-pyrrol-1-yl)quinazolin-4(3H)-one]: the values for the inhibition at 1 µM in experiment [1] and in experiment [2] were 60 to 80% and 80 to 100%, respectively.
Taken in the same sequence, the figures for `Cc1ccc(C)n1-n1c(Cn2nc(-c3ccc(O)c4c3CC(C)(C)O4)c3c(N)ncnc32)nc2cccc(C#CCN3CCOCC3)c2c1=O` [compound 80, 2-{[4-amino-3-(7-hydroxy-2,2-dimethyl-2,3-dihydro-1-benzofuran-4-yl)-1H-pyrazolo[3,4-d]pyrimidin-1-yl]methyl}-3-(2,5-dimethyl-1H-pyrrol-1-yl)-5-[3-(morpholin-4-yl)prop-1-yn-1-yl]quinazolin-4(3H)-one] were 60 to 80% and 80 to 100%.
With `Cn1cccc1-c1cccc2nc(Cn3nc(-c4ccc(O)c5c4CC(C)(C)O5)c4c(N)ncnc43)n(-n3cccc3)c(=O)c12` [compound 71, 2-{[4-amino-3-(7-hydroxy-2,2-dimethyl-2,3-dihydro-1-benzofuran-4-yl)-1H-pyrazolo[3,4-d]pyrimidin-1-yl]methyl}-5-(1-methyl-1H-pyrrol-2-yl)-3-(1H-pyrrol-1-yl)quinazolin-4(3H)-one], the inhibition at 1 µM in experiment [1] and in experiment [2] was 80 to 100% each time.
As to `Cc1ccc(-c2cccc3nc(Cn4nc(-c5ccc(O)c6c5CC(C)(C)O6)c5c(N)ncnc54)n(C4(c5ccccc5)CC4)c(=O)c23)o1` [compound 17, 2-{[4-amino-3-(7-hydroxy-2,2-dimethyl-2,3-dihydro-1-benzofuran-4-yl)-1H-pyrazolo[3,4-d]pyrimidin-1-yl]methyl}-5-(5-methylfuran-2-yl)-3-(1-phenylcyclopropyl)quinazolin-4(3H)-one], the inhibition at 1 µM in experiment [1] and in experiment [2] was 60 to 80% throughout.
Take `Cc1cccc2nc(C(C)n3nc(-c4ccc(O)c5c4CC(C)(C)O5)c4c(N)ncnc43)n(-n3cccc3)c(=O)c12` (racemic) [compound 96, 2-{(1RS)-1-[4-amino-3-(7-hydroxy-2,2-dimethyl-2,3-dihydro-1-benzofuran-4-yl)-1H-pyrazolo[3,4-d]pyrimidin-1-yl]ethyl}-5-methyl-3-(1H-pyrrol-1-yl)quinazolin-4(3H)-one]: the inhibition at 1 µM in experiment [1] and in experiment [2] was 80 to 100% each time.
On to `Cn1nccc1-c1cccc2nc(Cn3nc(-c4ccc(O)c5c4CC(C)(C)O5)c4c(N)ncnc43)n(-n3cccc3)c(=O)c12` [compound 22, 2-{[4-amino-3-(7-hydroxy-2,2-dimethyl-2,3-dihydro-1-benzofuran-4-yl)-1H-pyrazolo[3,4-d]pyrimidin-1-yl]methyl}-5-(1-methyl-1H-pyrazol-5-yl)-3-(1H-pyrrol-1-yl)quinazolin-4(3H)-one], for which the inhibition at 1 µM is 60 to 80% in experiment [1] and 80 to 100% in experiment [2].
With `Cc1cccc2nc(Cn3nc(-c4ccc(O)c5c4CC(C)(C)O5)c4c(N)ncnc43)n(C3(c4ccccc4)CC3)c(=O)c12` [Compound No. 8, 2-{[4-amino-3-(7-hydroxy-2,2-dimethyl-2,3-dihydro-1-benzofuran-4-yl)-1H-pyrazolo[3,4-d]pyrimidin-1-yl]methyl}-5-methyl-3-(1-phenylcyclopropyl)quinazolin-4(3H)-one], the inhibition at 1 µM in experiment [1] was 60 to 80%; in experiment [2] it was 80 to 100%.
Turning to `Cn1cc(-c2cccc3nc(Cn4nc(-c5ccc(O)c6c5CC(C)(C)O6)c5c(N)ncnc54)n(C4(c5ccsc5)CC4)c(=O)c23)cn1` [compound 69, 2-{[4-amino-3-(7-hydroxy-2,2-dimethyl-2,3-dihydro-1-benzofuran-4-yl)-1H-pyrazolo[3,4-d]pyrimidin-1-yl]methyl}-5-(1-methyl-1H-pyrazol-4-yl)-3-[1-(thiophen-3-yl)cyclopropyl]quinazolin-4(3H)-one], the inhibition at 1 µM in experiment [1] was in the range of 60 to 80%; in experiment [2] it was 80 to 100%.
For `CC1(C)Cc2c(-c3nn(Cc4nc5cccc(C#CCN6CCNC(=O)C6)c5c(=O)n4-n4cccc4)c4ncnc(N)c34)ccc(O)c2O1` [compound 58, 2-{[4-amino-3-(7-hydroxy-2,2-dimethyl-2,3-dihydro-1-benzofuran-4-yl)-1H-pyrazolo[3,4-d]pyrimidin-1-yl]methyl}-5-[3-(3-oxopiperazin-1-yl)prop-1-yn-1-yl]-3-(1H-pyrrol-1-yl)quinazolin-4(3H)-one], the inhibition at 1 µM in experiment [1] and in experiment [2] was 80 to 100% each time.
